# Assay results taken from patent publication US20260337153A1, “IONIZABLE AMINE LIPIDS” (Intellia Therapeutics, Inc., priority 2023, published 2026).
# Test system: rat TTR gene
# Experiment: In vivo editing of TTR in rat liver after LNP delivery (NGS, % editing)
# Parameters: species or system rat (Sprague-Dawley)
# Experimental: LNPs were prepared using various amine lipids in a 4-component lipid system consisting of an ionizable lipid (e.g., an amine lipid), DSPC, cholesterol and a PEG lipid (e.g., PEG2K-DMG, C13 Ether, C14 Ether). In assays for percent liver editing in rats, Cas9 mRNA and chemically modified sgRNA targeting a rat sequence were formulated in LNPs, at either a 1:1 w/w ratio or a 1:2 w/w sgRNA:Cas9 mRNA ratio.
# The lipid components were dissolved in 100% ethanol with the lipid component molar ratios described below. The chemically modified sgRNA and Cas9 mRNA were combined and dissolved in 25 mM citrate, 100 mM NaCl, pH 5.0, resulting in a concentration of total RNA cargo of approximately 0.45 mg/mL. The LNPs were formulated with an N:P ratio of about 6, with the ratio of chemically modified sgRNA:Cas9 mRNA at either a 1:1 or 1:2 w/w ratio as described below.
# The LNPs were formed by an impinging jet mixing of the lipid in ethanol with two volumes of RNA solution and one volume of water. First, the lipid in ethanol is mixed through a mixing cross with the two volumes of RNA solution. Then, a fourth stream of water is mixed with the outlet stream of the cross through an inline tee. (See, e.g., WO2016010840, FIG. 2). The LNPs were held for 1 hour at room temperature, and further diluted with water (approximately 1:1 v/v). Diluted LNPs were buffer exchanged into 50 mM Tris, 45 mM NaCl, 5% (w/v) sucrose, pH 7.5 (TSS) and concentrated as needed by methods known in the art. The resulting mixture was then filtered using a 0.2 μm sterile filter. The final LNP was stored at 4° C. or −80° C. until further use.
# Sprague-Dawley female rats, ranging from 6-10 weeks of age were used in each study. Animals were weighed and dosed based on individual body weight measured the morning of dosing. LNPs were dosed via the lateral tail vein in a volume of 2 mL per kilogram of animal body weight. The animals were periodically observed for adverse effects for at least 24 hours post dose.
# For studies measuring in vivo editing in liver, Sprague-Dawley female rats were dosed at 0.1 mpk or 0.03 mpk, unless otherwise noted. Animals were euthanized at 6 or 7 days by carbon dioxide asphyxiation and a heart clip or by ex sanguination via cardiac puncture under isoflourane anesthesia. Blood was collected into serum separator tubes. Liver tissue was collected. Genomic DNA was isolated from the liver tissue for editing measurement by Next-Generation Sequencing (NGS).
# In brief, to quantitatively determine the efficiency of editing at the target location in the genome, genomic DNA was isolated and deep sequencing was utilized to identify the presence of insertions and deletions introduced by gene editing.
# PCR primers were designed around the target site (e.g., TTR), and the genomic area of interest was amplified. Additional PCR was performed according to the manufacturer's protocols (Illumina) to add the necessary chemistry for sequencing. The amplicons were sequenced on an Illumina MiSeq instrument. The reads were aligned to the […] after eliminating those having low quality scores. The resulting files containing the reads were mapped to the reference genome (BAM files), where reads that overlapped the target region of interest were selected and the number of wild type reads versus the number of reads which contain an insertion, substitution, or deletion was calculated.
# The editing percentage (e.g., the “indel efficiency” or “percent indels” or “% editing” or “% indel”) can be defined as the total number of sequence reads with insertions or deletions over the total number of sequence reads, including wild type.
# In vivo editing efficiency for materials delivered with formulations including various amine lipid (or ionizable lipid) compounds in Experiments 1 through 14 as described in Tables 3 and 4 was assessed. Editing was measured using G000534 (SEQ ID NO: 5) which targets the rat TTR gene. […]
# [1] = Experiment 3, 0.1 mpk, LNP with PEG2K-DMG
# [2] = Experiment 2, 0.1 mpk, LNP with PEG2K-DMG
# [3] = Experiment 14, 0.03 mpk, LNP with C13 Ether
# [4] = Experiment 4, 0.1 mpk, LNP with PEG2K-DMG
structure (smiles),measurement,setting,value
"CCCCCCCCOC(CCC(=O)OCC(COC(=O)CCC(OCCCCCCCC)OCCCCCCCC)COC(=O)OCCCN(CC)CC)OCCCCCCCC [Compound 1, 2-((((3-(diethylamino)propoxy)carbonyl)oxy)methyl)propane-1,3-diyl bis(4,4-bis(octyloxy)butanoate)]",Mean % editing,[1],52.4%
"CCCCCCCCC(CCCCCCCC)OC(=O)CCCC(=O)OCC(COC(=O)CCCC(=O)OC(CCCCCCCC)CCCCCCCC)COC(=O)OCCCN(CC)CC [Compound 2, O,O′-(2-((((3-(diethylamino)propoxy)carbonyl)oxy)methyl)propane-1,3-diyl) di(heptadecan-9-yl) diglutarate]",Mean % editing,[2],59.8%
same,Mean % editing,[1],38.3%
same,Mean % editing,[3],21.2%
"CCCCCCCCC(CCCCCCCC)OC(=O)CCCCCC(=O)OCC(COC(=O)CCCCCC(=O)OC(CCCCCCCC)CCCCCCCC)COC(=O)OCCCN(CC)CC [Compound 3, O′1,O1-(2-((((3-(diethylamino)propoxy)carbonyl)oxy)methyl)propane-1,3-diyl) 7,7′-di(heptadecan-9-yl) di(heptanedioate)]",Mean % editing,[2],53.0%
"CCCCC/C=C\C/C=C\CCCCCCCC(=O)OCC(COC(=O)CCCCCC(=O)OCC(CCCC)CCCCCC)COC(=O)OCCCN(CC)CC (stereo not shown) [Compound 4, 1-(2-butyloctyl) 7-(3-(((3-(diethylamino)propoxy)carbonyl)oxy)-2-((((9Z,12Z)-octadeca-9,12-dienoyl)oxy)methyl)propyl) heptanedioate]",Mean % editing,[2],27.2%
same,Mean % editing,[1],29.7%
"CCCCCCC(CCCC)COC(=O)CCCCCC(=O)OCC(COC(=O)CCCCCC(=O)OCC(CCCC)CCCCCC)COC(=O)OCCCN(CC)CC (stereo not shown) [Compound 5, 7,7′-bis(2-butyloctyl) O′1,O1-(2-((((3-(diethylamino)propoxy)carbonyl)oxy)methyl)propane-1,3-diyl) di(heptanedioate)]",Mean % editing,[2],52.0%
"CCCCCCCCC(CCCCCCCC)OC(=O)CCCC(=O)OCC(COC(=O)CCCC(=O)OC(CCCCCCCC)CCCCCCCC)COC(=O)NCCN(CC)CC [Compound 6, O,O′-(2-((((2-(diethylamino)ethyl)carbamoyl)oxy)methyl)propane-1,3-diyl) di(heptadecan-9-yl) diglutarate]",Mean % editing,"Experiment 12, 0.04 mpk, LNP with PEG2K-DMG",36.3%
same,Mean % editing,"Experiment 13, 0.03 mpk, LNP with PEG2K-DMG",25.0%
same,Mean % editing,[3],22.4%
same,Mean % editing in rat liver,"NGS, dose 0.03 mpk, LNP with G000534 sgRNA and Cas9 mRNA 1:2 w/w, 3% C13 Ether (Compound 53: 3% PEG2K-DMG), N=5 (Compound 33: N=4)",30.4%
same,Mean % editing,"Table 6, 0.03 mpk, PEG lipid C13 Ether",27.4%
same,Mean % editing,"Table 6, 0.03 mpk, PEG lipid C14 Ether",18.9%
same,Mean % editing,"Table 6, 0.03 mpk, PEG lipid PEG2K-DMG",26.8%
same,Mean % editing,"Table 8, 0.03 mpk, LNP with C13 Ether",41.7%
"CCCCC/C=C\C/C=C\CCCCCCCC(=O)OCC(CCCCCCCCC(=O)OCC(CCCC)CCCCCC)COC(=O)OCCCN(CC)CC (stereo not shown) [Compound 7, 11-((2-butyloctyl)oxy)-2-((((3-(diethylamino)propoxy)carbonyl)oxy)methyl)-11-oxoundecyl (9Z,12Z)-octadeca-9,12-dienoate]",Mean % editing,[1],30.0%
"CCCCCCCCC(CCCCCCCC)OC(=O)CCCCCCC(COC(=O)CCCC(=O)OC(CCCCCCCC)CCCCCCCC)COC(=O)OCCCN(CC)CC (stereo not shown) [Compound 8, 2-((((3-(diethylamino)propoxy)carbonyl)oxy)methyl)-9-(heptadecan-9-yloxy)-9-oxononyl heptadecan-9-yl glutarate]",Mean % editing,[1],20.8%
"CCCCC/C=C\C/C=C\CCCCCCCC(=O)OCC(CCCCCCCCC(=O)OC(CCCCCCCC)CCCCCCCC)COC(=O)OCCCN(CC)CC (stereo not shown) [Compound 9, 2-((((3-(diethylamino)propoxy)carbonyl)oxy)methyl)-11-(heptadecan-9-yloxy)-11-oxoundecyl (9Z,12Z)-octadeca-9,12-dienoate]",Mean % editing,[1],5.3%
same,Mean % editing,[4],9.6%
same,Mean % editing,"Experiment 9, 0.1 mpk, LNP with PEG2K-DMG",4.3%
"CCCCC/C=C\C/C=C\CCCCCCCC(=O)OCC(CCCCCCCCC(=O)OC(CCCCCCCC)CCCCCCCC)COC(=O)NCCN(CC)CC (stereo not shown) [Compound 10, 2-((((2-(diethylamino)ethyl)carbamoyl)oxy)methyl)-11-(heptadecan-9-yloxy)-11-oxoundecyl (9Z,12Z)-octadeca-9,12-dienoate]",Mean % editing,[4],35.3%
